How the values were obtained:
[1] = test system: p53DsRed reporter in PG3/9 melanoma cells (A375 clone); test: p53DsRed reporter activation assay (in vitro p53 activity assay); format: cell-based; details: for EC50: Homo sapiens, A-375, PG3/9 melanoma cells, 24 hours, read-out: effective concentration (EC50), p53DsRed reporter activation
Experimental: The ability of the compounds to activate p53 was analyzed using a cell-based assay. To establish the assay, a stable cell transfectant expressing a p53-responsive reporter was generated. A375 melanoma cell line (ATCC CRL-1619) was transfected with a vector containing the p53 consensus element 13x repeat (13XRE) (Kern et al., 1991) cloned to a DsRed Express reporter vector (Clontech) to yield the vector “PG13DsRed”, hereafter termed as “p53DsRed”. […] The cell clone PG3/9 was used in the screen.
The assay was carried out in a 96-well format and all plate handlings were done using liquid handling robots (Thermo CRS, Thermo Electron Corporation; Biomek FX, Beckman Coulter and Hamilton STAR, Hamilton Microlab). Cells were plated at 10,000 cells/100 μL/well onto 96-well ViewPlates (Packard) and incubated overnight at +37° C. and 5% CO2. Small molecule compound chemical libraries were purchased and diluted to dimethylsulfoxide (DMSO) at 10 mM concentration. The compounds were pin-transferred to plain media at approximately 3 μM concentration either as single (one compound/one well) or pools of compounds (two compounds/one well). The growth media was removed and replaced with media with the test compounds followed by incubation of the cells for 24 h at +37° C. and 5% CO2. […] Following the incubation, the cells were washed with phosphate buffered saline and fixed with paraformaldehyde (PFA, 4%, 25 min, RT) and cell nuclei were stained with Hoechst 33342 (Molecular Probes, 4 μg/mL, 2 min, RT).
The fluorescence signals of Hoechst 33342 and DsRed reporter expression in the fixed cells were analyzed using ArrayScan 4.5 high-content screening platform (Cellomics) including an inverted microscope (Zeiss 200M) with 10× objective (Zeiss), Omega XF93 filter (Omega), ORCA-AG CCD camera (Hamamatsu). The algorithm used for image acquisition and analysis was Target Activation Bioapplication (Cellomics), which was set to analyse the total number of cells and the percentage of p53 reporter positive cells termed as “responders”. For each well, four images on both fluorescence channels were acquired corresponding to approximately 1700 cells in mock-treated wells. The mean number of responders was calculated for each well, and compounds causing reporter activation for more than two times the mean number of responders in the mock treated cells in each plate were regarded as hits.
In the secondary screen the hits were collected and tested over 100 nM to 10 μM concentration range. The compound treatment time, cell fixations and stainings as well as fluorescence signal detection was as described above. Compounds providing consistent p53DsRed reporter activation at low μM concentration range were selected for further testing. The effective concentration 50 (EC50) was calculated using the following formula: […]

RPMI7951 (MUTp53) = test: WST-1 cell viability assay, RPMI-7951; format: cell-based; details: Homo sapiens, RPMI-7951, 72 h, three days
Experimental: (§1) The effect of the compounds selected using the screening assay on the viability of several tumor cell lines as well as diploid cell lines and cell strains was studied. Cells were plated in 96-well plates at a density of 10,000 cells/100 μL/well and were incubated overnight. The following day compound dilutions ranging from 0 to 40 μM were applied to the cells in triplicate and the cells were incubated with the compounds for three days. Cell viability was assayed using the WST-1 cell proliferation reagent (Roche Diagnostics, Germany) The WST-1 reagent was diluted 1:10 in cell culture media and 100 μL of the reagent dilution was applied onto cells followed by 1 hour incubation at +37° C. The specific absorbance was measured at 450 nm and a reference absorbance was measured at 690 nm. […] Analysis for Protein Levels

[2] = test system: BC3-luc pleural effusion lymphoma cells; test: Orthotopic xenograft model of pleural effusion lymphoma; format: in vivo; details: NOD-SCID mice
Experimental: An orthotopic xenograft model of pleural effusion lymphoma was used to assess the anti-tumor activities of compounds 15, 21 and 22. Female NOD-SCID mice (Charles River, France) were injected intraperitoneally with pleural effusion lymphoma cells carrying a stable NF-kappaB regulated luciferase reporter (BC3-luc cells) (Keller et al., 2006). The tumors were allowed to establish for three days after which the mice were imaged and divided into treatment (groups 4-5 mice per group). The compound treatments were initiated on day four. The mice received 2 mg/kg (cmp21) or 20 mg/kg (cmp15 and 22) every other/third day for seven times via i.p. injections, control mice received DMSO only. The mice were imaged prior to each compound injection. Imaging was carried out with Xenogen In Vivo Imaging System (IVIS), D-luciferin (Synchem OHG, Germany) was injected intraperitoneally (100 mg/kg) 10-15 min prior to each imaging. Quantitation was done using Igor Pro Carbon analysis software, bioluminescence was quantitated and plotted as total flux within a given ROI.

[3] = test system: Human intestinal endothelial cells; test: WST-1 cell viability assay, intestinal endothelial cells; format: cell-based; details: Endothelial cell, 72 h, three days
Experimental: as §1

Row | SMILES | EC50 [1] [nM] | IC50 (RPMI7951 (MUTp53)) [nM] | inhibition of tumor cell growth (bioluminescence) ([2]; 2 mg/kg i.p. seven times) | IC50 [3] [nM] | fraction of p53-reporter activated cells at high concentrations ([1]; high concentrations, apparently due to excessive cell death) | inhibition of tumor cell growth (bioluminescence) ([2]; 20 mg/kg i.p. seven times)
1 | CN(C)CCNC(=O)c1cccn2c(=O)c3cc4ccccc4cc3nc12 [Compound 21] | 300 | 3000 | did not have any effect | 2700 | – | –
2 | Cc1cc(C)c2nc3nc(C)cc(C)c3c(N)c2c1 [Compound 22, 2,4,7,9-tetramethylbenzo[b]-1,8-naphthyridin-5-amine] | 2600 | 13300 | – | 14500 | decrease in the fraction of p53-reporter activated cells | noticeable inhibition of the tumor cell growth

Reference: patent US10214491B2, “Activators and therapeutic applications thereof” (THE JOHNS HOPKINS UNIVERSITY, priority 2007, dated 2019)
